Data on 14 molecules can be found in US9700547B2, “Use of 6-hydroxy-2-pyridones and derivatives thereof for preparing a pharmaceutical composition that acts by inhibiting the human uridine phosphorylase enzyme” (UNIÃO BRASILEIRA DE EDUCAÇÃO E ASSISTÊNCIA, MANTENEDORA DA …, priority 2013, dated 2017).

For orientation: inhibition means the relative decrease from the control value, in per cent. For orientation: Kd means the free concentration of one partner at which half of the binding sites on the other are occupied at equilibrium, for simple one-to-one binding. The low end stands for higher affinity, the high end for lower affinity.

In series [1] the target is T1, Human Phosphorylase Uridine 1 (hUP1) (Homo sapiens, UniProt Q16831). The experiment in a line: hUP1 enzymatic assay, inhibition at 1 μM (UV absorbance of uridine at 280 nm). The format is biochemical. The note with it: 1 μM compound, 37° C. The procedure: (§1) The enzymatic activity of the hUP1 is performed through the enzymatic essay using one spectrophotometer UV/visible where the absorbance reduction of uridine in 280 nm, for 1 min and at 37° C. was monitored.
For determining which inhibitors would be selected for determining the inhibition constant (Ki), one cut point of 1 μM was stipulated, where only those compounds that would inhibit more than 60% of the initial activity of the enzyme would be selected for this type of analysis (Table 1). From all compounds tested, 7 molecules had its inhibition above 60% with the concentration of 1 μM (Compounds c1, c2, c3, c4, c6, c12, and c13). All essays described on this patent application were performed for these compounds and for benzil acyclo uridine (BAU), in order to perform a direct comparison of the results achieved with the better in vitro inhibitor of the hUP1 described (standard).

A further series deals with hUP1-Pi (Homo sapiens, UniProt Q16831). The experiment in a line: isothermal titration microcalorimetry (ITC), enzyme complexed with substrate Pi. The format is binding. On the procedure: (§2) For determining the thermodynamic parameters (enthalpy variation—ΔH, entropy variation—ΔS, and free energy variation of Gibbs—ΔG) were performed compounds binding essays to the enzyme in different conditions: free enzyme, complexed enzyme with the substrate Pi, and the complexed enzyme with the product ribose-1-phosphate (R1P). For such analyses, it was used isothermal titration microcalorimetry (ITC) where the equipment monitors the difference of transferred heat, between the reference cell and the sample cell, when bindings are formed or broken during the binding process. The data analysis achieved was performed through the model One Set of Sites and the determination of ΔG and the dissociation constant (KD) were through the equations (IV) and (V) below, respectively: ΔG=ΔH−TΔS (IV) KD=1/Ka (V)

The target of the next series is hUP1 (Homo sapiens, UniProt Q16831). The experiment in a line: isothermal titration microcalorimetry (ITC), free enzyme. The class given is binding. The procedure: as §2
Series [2] concerns the target T1, Human Phosphorylase Uridine 1 (hUP1). As to the kind of experiment: Ki and inhibition type from substrate saturation curves, double-reciprocal analysis. To be noted: for Inhibiting type for phosphate: substrate Pi; for Inhibition type for uridine: substrate uridine. The class given is biochemical. The procedure:
as §1
For determining Ki for the selected inhibitors, we performed saturation curves where the concentration of one of the substrates is fixed next to the Km and the concentration of another, varied until the saturation in fixed-varying concentrations of each one of the inhibitors.
(I) v=VA/[Ka(1+I/Kii)+A(1+Kis)] (II) v=VA/[A(1+I/Kis)+Ka] (III)

The target of the next series is hUP1-R1P (Homo sapiens, UniProt Q16831). As to the kind of experiment: isothermal titration microcalorimetry (ITC), enzyme complexed with product ribose-1-phosphate. The format is binding. On the procedure:
as §2
Background: In ITC the heat of successive injections is recorded.

The subject of series [3] is intestinal mucositis caused by 5-FU. The experiment in a line: intestinal mucositis model caused by 5-FU (weight, diarrhea, villus histology). The class given is in vivo, female Wistar mouse. On the procedure: The compound c3 was tested in in vivo for evaluating its protection regarding intestinal mucositis caused by 5-FU. The mucositis model was developed in female Wistar mouse (180-200 g) and the animals were divided into 5 groups with 4 animals in each group: Group 1: Saline+Saline Group 2: Compound c3 (150 mg/kg)+saline Group 3: Saline+5-FU (50 mg/kg) Group 4: Compound c3 (50 mg/kg)+5-FU (50 mg/kg) Group 5: Compound c3 (150 mg/kg)+5-FU (50 mg/kg) The test compound was administrated via oral, 30 minutes before administrating the chemotherapeutic 5-FU that was administrated via intraperitoneal. This treatment was followed for 5 days with once a day administrations. In the 5th treatment day, the animals were euthanized using one inhalational anesthetic (isoflurane) and the initial portion of the intestine (corresponding to jejunum and ileus) was collected for myeloperoxidase analysis (MPO) and histological analysis of the tissue, as well blood collect for quantification analysis of the uridine in the plasma. The animals were also followed-up regarding weight loss and diarrhea.

Sequence of hUP1-Pi (Q16831 whole entry): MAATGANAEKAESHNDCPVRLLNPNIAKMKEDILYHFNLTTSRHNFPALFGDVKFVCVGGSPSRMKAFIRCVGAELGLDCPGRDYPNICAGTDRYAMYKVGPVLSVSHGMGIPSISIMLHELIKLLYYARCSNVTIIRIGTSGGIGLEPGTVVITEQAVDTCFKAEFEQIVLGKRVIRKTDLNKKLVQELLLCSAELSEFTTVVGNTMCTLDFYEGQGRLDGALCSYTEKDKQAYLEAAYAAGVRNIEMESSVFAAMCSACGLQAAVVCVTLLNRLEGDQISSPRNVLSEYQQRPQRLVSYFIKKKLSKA
Sequence of hUP1 (Q16831 whole entry): as above
Sequence of hUP1-R1P (Q16831 whole entry): as above
T1 sequence (Q16831 whole entry): as above

As for `CCN(CC)Cc1c(O)[nH]c(=O)c(C#N)c1C` [Compound c9], the inhibition at 1 µM in series [1] stood at 25%.

Take `Cc1c(CNCCO)c(O)[nH]c(=O)c1C#N` [c2]: on hUP1-Pi, the affinity, expressed as Kd, was 0.151 ± 0.034 µM; the “ΔG°” value was -9.5 ± 2.1 kcal/mol; the “ΔH°” value was -16 ± 0.2 kcal/mol; the “−TΔS (kcal/mol/deg)” value worked out at 6.4 ± 1.4 kcal/mol/deg. At hUP1, binding was characterised by a dissociation constant (Kd) of 2 ± 0.221 µM, the “ΔG°” value is -8.0 ± 0.9 kcal/mol, the “ΔH°” value is -23 ± 0.5 kcal/mol and the “−TΔS (kcal/mol/deg)” value came to 14 ± 1.5 kcal/mol/deg. Moreover, in series [1], the “Inhibition with 1 μM (%)” value turned out to be 80% and the inhibition at 1 µM was greater than 60%. Also, in series [2], the “Inhibiting type for phosphate” value was “Uncompetitive” and the “Inhibition type for uridine” value is “Competitive”. Further, on hUP1-R1P (hUP1-R1P 50 μM), the affinity, expressed as Kd, was 2.3 ± 0.423 µM; the “ΔG°” value was -8.0 ± 1.5 kcal/mol; the “ΔH°” value was -17 ± 0.6 kcal/mol; the “−TΔS (kcal/mol/deg)” value turned out to be 9.5 ± 1.7 kcal/mol. Also, on hUP1-R1P (hUP1-R1P 150 μM), binding was put at a Kd of 3.8 ± 0.553 µM, the “ΔG°” value was -7.6 ± 1.1 kcal/mol, the “ΔH°” value was -30 ± 1.5 kcal/mol and the “−TΔS (kcal/mol/deg)” value stood at 23 ± 3.3 kcal/mol.

For the molecule `O=c1[nH]cc(F)c(=O)[nH]1` [Compound 5-FU, 5-fluorouracil, reference compound], the diarrhea result in series [3] (5-FU 50 mg/kg intraperitoneal, once a day, all groups that received the chemotherapeutic) is reported as “developed severe diarrhea”. Moreover, the weight loss result in series [3] (5-FU 50 mg/kg intraperitoneal, once a day, with or without the compound, day 1 vs day 6) was “had a weight loss and this was significant”. The “intestinal villus (histological analysis)” value in series [3] (group that received only 5-FU, 50 mg/kg intraperitoneal) is “villus totally damaged”.

With `N#Cc1ccc(O)[nH]c1=O` [c12], at hUP1, the Kd is 2.9 ± 0.554 µM, the “ΔG°” value was -7.8 ± 1.5 kcal/mol, the “ΔH°” value was -9.6 ± 0.3 kcal/mol and the “−TΔS (kcal/mol/deg)” value is 1.7 ± 0.3 kcal/mol/deg. In series [1], the “Inhibition with 1 μM (%)” value is listed as 67% and the inhibition at 1 µM was greater than 60%. Further, in series [2], the “Inhibiting type for phosphate” value is reported as “Not Competitive” and the “Inhibition type for uridine” value is “Not competitive”. On hUP1-R1P (hUP1-R1P 50 μM), the equilibrium dissociation constant (Kd) came to 0.108 ± 0.018 µM, the “ΔG°” value is -9.8 ± 1.6 kcal/mol, the “ΔH°” value was -15 ± 0.1 kcal/mol and the “−TΔS (kcal/mol/deg)” value came to 5.7 ± 0.9 kcal/mol. Also, at hUP1-R1P (hUP1-R1P 150 μM), the Kd came out at 0.127 ± 0.048 µM, the “ΔG°” value is -9.7 ± 3.7 kcal/mol, the “ΔH°” value is -18 ± 0.5 kcal/mol and the “−TΔS (kcal/mol/deg)” value amounted to 8.5 ± 3.2 kcal/mol.

In turn, `Cc1c(Cc2ccccc2)c(O)[nH]c(=O)c1C#N` [Compound c11] displayed an inhibition at 1 µM in series [1] of 43%.

Molecule `O=c1[nH]cc(CNCCO)c(=O)[nH]1` [Compound c14] registered an inhibition at 1 µM in series [1] of 2%.

Consider `Cc1c(CNCC(O)CO)c(O)[nH]c(=O)c1C#N` (stereo not shown) [c4], for which, at hUP1-Pi, binding was characterised by a dissociation constant (Kd) of 0.263 ± 0.026 µM, the “ΔG°” value is -9.3 ± 0.9 kcal/mol, the “ΔH°” value was -19 ± 0.1 kcal/mol and the “−TΔS (kcal/mol/deg)” value is reported as 10 ± 1.0 kcal/mol/deg. Moreover, on hUP1, binding was put at a Kd of 20 ± 2.63 µM, the “ΔG°” value is -6.7 ± 0.9 kcal/mol, the “ΔH°” value is -22 ± 2.2 kcal/mol and the “−TΔS (kcal/mol/deg)” value is reported as 15 ± 2.0 kcal/mol/deg. In series [1], the “Inhibition with 1 μM (%)” value is recorded as 78% and the inhibition at 1 µM is greater than 60%. In series [2], the “Inhibiting type for phosphate” value was “Uncompetitive” and the “Inhibition type for uridine” value is “Competitive”. In addition, on hUP1-R1P (hUP1-R1P 50 μM), the Kd is 4.6 ± 0.344 µM, the “ΔG°” value was -7.5 ± 0.5 kcal/mol, the “ΔH°” value is -22 ± 0.5 kcal/mol and the “−TΔS (kcal/mol/deg)” value was 14 ± 1.0 kcal/mol. In addition, on hUP1-R1P (hUP1-R1P 150 μM), the affinity, expressed as Kd, was 9.4 ± 1.04 µM; the “ΔG°” value was -7.1 ± 0.8 kcal/mol; the “ΔH°” value was -18 ± 0.8 kcal/mol; the “−TΔS (kcal/mol/deg)” value was 11 ± 1.2 kcal/mol.

For `N#Cc1c(-c2ccccc2)cc(O)[nH]c1=O` [Compound c7], testing at 1 µM in series [1] gave an inhibition of 42%.

In the case of `CCCN(CCC)Cc1c(O)[nH]c(=O)c(C#N)c1C` [Compound c10], the inhibition at 1 µM in series [1] was 20%.

The molecule `CCc1cc(O)[nH]c(=O)c1C#N` [Compound c8] had an inhibition at 1 µM in series [1] of 25%.

On to `Cc1c(CNC(CO)CO)c(O)[nH]c(=O)c1C#N` [c6], for which, on hUP1-Pi, the affinity, expressed as Kd, was 0.502 ± 0.083 µM; the “ΔG°” value was -9.0 ± 1.5 kcal/mol; the “ΔH°” value was -14 ± 0.2 kcal/mol; the “−TΔS (kcal/mol/deg)” value came out at 5.0 ± 0.8 kcal/mol/deg. Besides, at hUP1, the Kd turned out to be 5.3 ± 0.674 µM, the “ΔG°” value was -7.4 ± 1.0 kcal/mol and the “−TΔS (kcal/mol/deg)” value was 16 ± 2.0 kcal/mol/deg. For the same molecule, in series [1], the “Inhibition with 1 μM (%)” value is recorded as 82%. Moreover, in series [2], the “Inhibiting type for phosphate” value is “Uncompetitive” and the “Inhibition type for uridine” value is “Competitive”. For the same molecule, on hUP1-R1P (hUP1-R1P 50 μM), the Kd came out at 7 ± 0.661 µM, the “ΔG°” value was -7.3 ± 0.7 kcal/mol, the “ΔH°” value is -18 ± 0.4 kcal/mol and the “−TΔS (kcal/mol/deg)” value came out at 10 ± 1.0 kcal/mol. On hUP1-R1P (hUP1-R1P 150 μM), binding was characterised by a dissociation constant (Kd) of 7 ± 2.12 µM, the “ΔG°” value was -7.3 ± 2.2 kcal/mol, the “ΔH°” value is -10 ± 1.0 kcal/mol and the “−TΔS (kcal/mol/deg)” value came to 3.3 ± 1.0 kcal/mol.

The molecule `Cc1c(CN2CCCCC2)c(O)[nH]c(=O)c1C#N` [Compound c5] yielded an inhibition at 1 µM in series [1] of 49%.

Regarding `Cc1cc(O)[nH]c(=O)c1C#N` [c13], at hUP1, the Kd stood at 12 ± 1.82 µM, the “ΔG°” value is -6.9 ± 1.0 kcal/mol, the “ΔH°” value is -8.7 ± 0.7 kcal/mol and the “−TΔS (kcal/mol/deg)” value came out at 1.7 ± 0.2 kcal/mol/deg. The “Inhibition with 1 μM (%)” value in series [1] was 62%. Besides, in series [2], the “Inhibiting type for phosphate” value is on record as “Not competitive” and the “Inhibition type for uridine” value was “Not competitive”. Further, on hUP1-R1P (hUP1-R1P 50 μM), the Kd was found to be 1.3 ± 0.197 µM, the “ΔG°” value was -8.1 ± 1.2 kcal/mol, the “ΔH°” value is -27 ± 0.7 kcal/mol and the “−TΔS (kcal/mol/deg)” value worked out at 19 ± 2.9 kcal/mol. Besides, on hUP1-R1P (hUP1-R1P 150 μM), binding was put at a Kd of 1.3 ± 0.435 µM, the “ΔG°” value was -8.0 ± 2.7 kcal/mol, the “ΔH°” value was -35 ± 2.1 kcal/mol and the “−TΔS (kcal/mol/deg)” value is on record as 27 ± 9.1 kcal/mol.

Turning to `Cc1c(CN(C)C)c(O)[nH]c(=O)c1C#N` [c1], on hUP1-Pi, the dissociation constant (Kd) is 0.312 ± 0.073 µM, the “ΔG°” value was -9.1 ± 2.1 kcal/mol, the “ΔH°” value is -12 ± 0.2 kcal/mol and the “−TΔS (kcal/mol/deg)” value is 2.6 ± 0.6 kcal/mol/deg. Further, on hUP1, binding was put at a Kd of 4.2 ± 0.602 µM, the “ΔG°” value is -7.6 ± 1.1 kcal/mol, the “ΔH°” value is -6.7 ± 0.2 kcal/mol and the “−TΔS (kcal/mol/deg)” value amounted to 0.8 ± 0.1 kcal/mol/deg. Moreover, in series [1], the “Inhibition with 1 μM (%)” value stood at 81%. In addition, in series [2], the “Inhibiting type for phosphate” value is on record as “Uncompetitive” and the “Inhibition type for uridine” value is listed as “Competitive”. On hUP1-R1P (hUP1-R1P 50 μM), the Kd worked out at 7.4 ± 0.381 µM, the “ΔG°” value is -7.2 ± 0.4 kcal/mol, the “ΔH°” value was -22 ± 0.4 kcal/mol and the “−TΔS (kcal/mol/deg)” value was 14 ± 0.7 kcal/mol. In addition, on hUP1-R1P (hUP1-R1P 150 μM), the dissociation constant (Kd) came out at 10 ± 1.32 µM, the “ΔG°” value is -7.0 ± 0.9 kcal/mol, the “ΔH°” value is -23 ± 0.1 kcal/mol and the “−TΔS (kcal/mol/deg)” value stood at 16 ± 2.1 kcal/mol.
